pIC50: −log10 of the molar value. Counter-ions that a name gives are not always drawn.
Target: T1, human liver glycogen phosphorylase a (HLGPa) (Homo sapiens, UniProt P06737)
T1 construct: creating a full-length cDNA fused at the 5′ end to codons for methionine-glycine-alanine-histidine; 6xHis tag (leader Met-Gly-Ala-His6-Gly-Gly) (N); made in house; host or cells: E. coli (bacterial expression plasmid pTXK1007LTev)
T1 sequence (P06737 2-847 limits assumed): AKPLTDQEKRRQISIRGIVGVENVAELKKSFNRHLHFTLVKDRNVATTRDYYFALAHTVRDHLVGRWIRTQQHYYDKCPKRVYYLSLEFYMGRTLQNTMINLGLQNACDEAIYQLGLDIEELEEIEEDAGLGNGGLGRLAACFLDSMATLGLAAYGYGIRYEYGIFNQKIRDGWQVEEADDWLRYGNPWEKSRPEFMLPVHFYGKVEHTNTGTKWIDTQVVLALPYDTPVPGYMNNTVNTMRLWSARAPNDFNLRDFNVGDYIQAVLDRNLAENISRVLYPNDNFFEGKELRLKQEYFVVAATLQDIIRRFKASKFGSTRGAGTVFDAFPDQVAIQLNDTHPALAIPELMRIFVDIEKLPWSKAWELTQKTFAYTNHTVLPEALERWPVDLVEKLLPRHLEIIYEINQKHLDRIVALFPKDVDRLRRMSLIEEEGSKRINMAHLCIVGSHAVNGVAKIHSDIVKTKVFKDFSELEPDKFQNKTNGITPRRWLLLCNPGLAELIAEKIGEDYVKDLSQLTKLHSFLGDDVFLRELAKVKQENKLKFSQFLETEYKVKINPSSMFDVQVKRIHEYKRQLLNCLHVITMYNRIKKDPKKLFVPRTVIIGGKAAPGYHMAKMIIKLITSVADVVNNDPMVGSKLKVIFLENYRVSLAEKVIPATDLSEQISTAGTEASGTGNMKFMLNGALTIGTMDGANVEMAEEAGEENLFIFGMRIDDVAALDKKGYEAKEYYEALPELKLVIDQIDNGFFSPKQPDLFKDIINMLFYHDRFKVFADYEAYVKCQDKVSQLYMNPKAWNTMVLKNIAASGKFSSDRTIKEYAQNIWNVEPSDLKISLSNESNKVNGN
Test: Human liver glycogen phosphorylase a enzymatic activity assay (coupled, fluorescent resorufin readout, with and without 10 mM glucose)
Format: biochemical
Details: human liver glycogen phosphorylase a enzymatic activity assay

Structure (SMILES)	pIC50
C[C@@H](O)[C@H](NC(=O)c1cc2ccccc2cc1NC(=O)Nc1ccccc1Cl)C(=O)O [Example 29, N-[3-({[(2-chlorophenyl)amino]carbonyl}amino)-2-naphthoyl]-L-threonine]	5.14
Cc1cccc(Cl)c1NC(=O)Nc1cc2ccccc2cc1C(=O)N[C@@H](CO)C(=O)O [Example 34, N-[3-({[(2-chloro-6-methylphenyl)amino]carbonyl}amino)-2-naphthoyl]-L-serine]	6.19
Cc1cccc(Cl)c1NC(=O)Nc1cc2ccccc2cc1C(=O)N1CCC[C@H]1C(=O)O [Example 35, 1-[3-({[(2-chloro-6-methylphenyl)amino]carbonyl}amino)-2-naphthoyl]-L-proline]	6.24
Cc1cccc(Cl)c1NC(=O)Nc1cc2ccccc2cc1C(=O)N[C@H](C(=O)O)C(C)C [Example 36, N-[3-({[(2-chloro-6-methylphenyl)amino]carbonyl}amino)-2-naphthoyl]-L-valine]	5.77
CC[C@H](C)[C@H](NC(=O)c1cc2ccccc2cc1NC(=O)Nc1c(C)cccc1Cl)C(=O)O [Example 38, N-[3-({[(2-chloro-6-methylphenyl)amino]carbonyl}amino)-2-naphthoyl]-L-isoleucine]	6.55
Cc1cccc(Cl)c1NC(=O)Nc1cc2ccccc2cc1C(=O)N[C@@H](CC(C)C)C(=O)O [Example 39, N-[3-({[(2-chloro-6-methylphenyl)amino]carbonyl}amino)-2-naphthoyl]-L-leucine]	6.22
Cc1ccccc1NC(=O)Nc1cc2ccccc2cc1C(=O)N[C@@H](Cc1ccccc1)C(=O)O [Example 45, N-[3-({[(2-methylphenyl)amino]carbonyl}amino)-2-naphthoyl]-L-phenylalanine]	4.77
Cc1ccccc1NC(=O)Nc1cc2ccccc2cc1C(=O)N[C@@H](Cc1c[nH]c2ccccc12)C(=O)O [Example 46, N-[3-({[(2-methylphenyl)amino]carbonyl}amino)-2-naphthoyl]-L-tryptophan]	5.43
Cc1cccc(C)c1NC(=O)Nc1cc2ccccc2cc1C(=O)N[C@@H](CCC(=O)O)C(=O)O [Example 48, N-[3-({[(2,6-dimethylphenyl)amino]carbonyl}amino)-2-naphthoyl]-L-glutamic acid]	5.76
CSCC[C@H](NC(=O)c1cc2ccccc2cc1NC(=O)Nc1c(C)cccc1C)C(=O)O [Example 49, N-[3-({[(2,6-dimethylphenyl)amino]carbonyl}amino)-2-naphthoyl]-L-methionine]	5.78
Cc1cccc(C)c1NC(=O)Nc1cc2ccccc2cc1C(=O)N[C@@H](Cc1ccccc1)C(=O)O [Example 51, N-[3-({[(2,6-dimethylphenyl)amino]carbonyl}amino)-2-naphthoyl]-L-phenylalanine]	6.17
Cc1cccc(C)c1NC(=O)Nc1cc2ccccc2cc1C(=O)N[C@@H](CCCNC(=N)N)C(=O)O [Example 52, N-[3-({[(2,6-dimethylphenyl)amino]carbonyl}amino)-2-naphthoyl]-L-arginine]	5.33
Cc1cccc(C)c1NC(=O)Nc1cc2ccccc2cc1C(=O)N[C@@H](Cc1ccc(O)cc1)C(=O)O [Example 53, N-[3-({[(2,6-dimethylphenyl)amino]carbonyl}amino)-2-naphthoyl]-L-tyrosine]	6.44
O=C(O)CC[C@H](NC(=O)c1cc2ccccc2cc1NC(=O)Nc1ccccc1Cl)C(=O)O [Example 55, N-[3-({[(2-chlorophenyl)amino]carbonyl}amino)-2-naphthoyl]-L-glutamic acid]	4.98
O=C(Nc1ccccc1Cl)Nc1cc2ccccc2cc1C(=O)N[C@@H](Cc1cnc[nH]1)C(=O)O [Example 56, N-[3-({[(2-chlorophenyl)amino]carbonyl}amino)-2-naphthoyl]-L-histidine trifluoroacetate]	5.51
O=C(Nc1ccccc1Cl)Nc1cc2ccccc2cc1C(=O)N[C@@H](Cc1ccccc1)C(=O)O [Example 57, N-[3-({[(2-chlorophenyl)amino]carbonyl}amino)-2-naphthoyl]-L-phenylalanine]	5.28
CSCC[C@H](NC(=O)c1cc2ccccc2cc1NC(=O)Nc1c(C)cccc1Cl)C(=O)O [Example 60, N-[3-({[(2-chloro-6-methylphenyl)amino]carbonyl}amino)-2-naphthoyl]-L-methionine]	6.19

Further compounds by rising pIC50, results first:

pIC50	Structure (SMILES)
4.39	NC(=O)CC[C@H](NC(=O)c1cc2ccccc2cc1NC(=O)Nc1ccccc1Cl)C(=O)O [Example 32, N-[3-({[(2-chlorophenyl)amino]carbonyl}amino)-2-naphthoyl]-L-glutamine]
4.55	Cc1ccccc1NC(=O)Nc1cc2ccccc2cc1C(=O)N[C@@H](CCC(=O)O)C(=O)O [Example 42, N-[3-({[(2-methylphenyl)amino]carbonyl}amino)-2-naphthoyl]-L-glutamic acid]
4.62	O=C(Nc1ccccc1Cl)Nc1cc2ccccc2cc1C(=O)N[C@@H](CO)C(=O)O [Example 28, N-[3-({[(2-chlorophenyl)amino]carbonyl}amino)-2-naphthoyl]-L-serine]
4.66	CC[C@H](C)[C@H](NC(=O)c1cc2ccccc2cc1NC(=O)Nc1ccccc1Cl)C(=O)O [Example 30, N-[3-({[(2-chlorophenyl)amino]carbonyl}amino)-2-naphthoyl]-L-isoleucine]
4.72	CSCC[C@H](NC(=O)c1cc2ccccc2cc1NC(=O)Nc1ccccc1C)C(=O)O [Example 43, N-[3-({[(2-methylphenyl)amino]carbonyl}amino)-2-naphthoyl]-L-methionine]
4.87	C[C@H](NC(=O)c1cc2ccccc2cc1NC(=O)Nc1ccccc1Cl)C(=O)O [Example 27, N-[3-({[(2-chlorophenyl)amino]carbonyl}amino)-2-naphthoyl]-L-alanine]
4.94	NC(=O)C[C@H](NC(=O)c1cc2ccccc2cc1NC(=O)Nc1ccccc1Cl)C(=O)O [Example 31, N-[3-({[(2-chlorophenyl)amino]carbonyl}amino)-2-naphthoyl]-L-asparagine]
5.09	Cc1cccc(C)c1NC(=O)Nc1cc2ccccc2cc1C(=O)N[C@@H](CCCCN)C(=O)O [Example 47, N-[3-({[(2,6-dimethylphenyl)amino]carbonyl}amino)-2-naphthoyl]-L-lysine trifluoroacetate]
5.29	Cc1ccccc1NC(=O)Nc1cc2ccccc2cc1C(=O)N[C@@H](Cc1cnc[nH]1)C(=O)O [Example 44, N-[3-({[(2-methylphenyl)amino]carbonyl}amino)-2-naphthoyl]-L-histidine trifluoroacetate]
5.33	O=C(Nc1ccccc1Cl)Nc1cc2ccccc2cc1C(=O)N[C@@H](Cc1c[nH]c2ccccc12)C(=O)O [Example 58, N-[3-({[(2-chlorophenyl)amino]carbonyl}amino)-2-naphthoyl]-L-tryptophan trifluoroacetate]
5.52	Cc1cccc(Cl)c1NC(=O)Nc1cc2ccccc2cc1C(=O)N[C@@H](CCCCN)C(=O)O [Example 59, N-[3-({[(2-chloro-6-methylphenyl)amino]carbonyl}amino)-2-naphthoyl]-L-lysine trifluoroacetate]
5.64	Cc1cccc(C)c1NC(=O)Nc1cc2ccccc2cc1C(=O)N[C@@H](Cc1cnc[nH]1)C(=O)O [Example 50, N-[3-({[(2,6-dimethylphenyl)amino]carbonyl}amino)-2-naphthoyl]-L-histidine trifluoroacetate]
5.88	Cc1cccc(Cl)c1NC(=O)Nc1cc2ccccc2cc1C(=O)N[C@@H](CCC(N)=O)C(=O)O [Example 41, N-[3-({[(2-chloro-6-methylphenyl)amino]carbonyl}amino)-2-naphthoyl]-L-glutamine]
6.28	Cc1cccc(Cl)c1NC(=O)Nc1cc2ccccc2cc1C(=O)N[C@@H](C)C(=O)O [Example 33, N-[3-({[(2-chloro-6-methylphenyl)amino]carbonyl}amino)-2-naphthoyl]-L-alanine]
6.29	Cc1cccc(C)c1NC(=O)Nc1cc2ccccc2cc1C(=O)N[C@@H](Cc1c[nH]c2ccccc12)C(=O)O [Example 54, N-[3-({[(2,6-dimethylphenyl)amino]carbonyl}amino)-2-naphthoyl]-L-tryptophan trifluoroacetate]
6.37	Cc1cccc(Cl)c1NC(=O)Nc1cc2ccccc2cc1C(=O)N[C@H](C(=O)O)[C@@H](C)O [Example 37, N-[3-({[(2-chloro-6-methylphenyl)amino]carbonyl}amino)-2-naphthoyl]-L-threonine]
6.38	Cc1cccc(Cl)c1NC(=O)Nc1cc2ccccc2cc1C(=O)N[C@@H](CC(N)=O)C(=O)O [Example 40, N-[3-({[(2-chloro-6-methylphenyl)amino]carbonyl}amino)-2-naphthoyl]-L-asparagine]

Reference: patent US20070249670A1, “Glycogen Phosphorylase Inhibitor Compounds and Pharmaceutical Compositions Thereof” (SMITHKLINE BEECHAM CORPORATION, priority 2004, published 2007)
